Consider 32 compounds from patent publication US20250340516A1, “Isoquinolinones as Modulators of POLRMT” (Pretzel Therapeutics, Inc., priority 2024, published 2025).

Molecules are shown by their SMILES.

Sequence of POLRMT (O00411 42-1230): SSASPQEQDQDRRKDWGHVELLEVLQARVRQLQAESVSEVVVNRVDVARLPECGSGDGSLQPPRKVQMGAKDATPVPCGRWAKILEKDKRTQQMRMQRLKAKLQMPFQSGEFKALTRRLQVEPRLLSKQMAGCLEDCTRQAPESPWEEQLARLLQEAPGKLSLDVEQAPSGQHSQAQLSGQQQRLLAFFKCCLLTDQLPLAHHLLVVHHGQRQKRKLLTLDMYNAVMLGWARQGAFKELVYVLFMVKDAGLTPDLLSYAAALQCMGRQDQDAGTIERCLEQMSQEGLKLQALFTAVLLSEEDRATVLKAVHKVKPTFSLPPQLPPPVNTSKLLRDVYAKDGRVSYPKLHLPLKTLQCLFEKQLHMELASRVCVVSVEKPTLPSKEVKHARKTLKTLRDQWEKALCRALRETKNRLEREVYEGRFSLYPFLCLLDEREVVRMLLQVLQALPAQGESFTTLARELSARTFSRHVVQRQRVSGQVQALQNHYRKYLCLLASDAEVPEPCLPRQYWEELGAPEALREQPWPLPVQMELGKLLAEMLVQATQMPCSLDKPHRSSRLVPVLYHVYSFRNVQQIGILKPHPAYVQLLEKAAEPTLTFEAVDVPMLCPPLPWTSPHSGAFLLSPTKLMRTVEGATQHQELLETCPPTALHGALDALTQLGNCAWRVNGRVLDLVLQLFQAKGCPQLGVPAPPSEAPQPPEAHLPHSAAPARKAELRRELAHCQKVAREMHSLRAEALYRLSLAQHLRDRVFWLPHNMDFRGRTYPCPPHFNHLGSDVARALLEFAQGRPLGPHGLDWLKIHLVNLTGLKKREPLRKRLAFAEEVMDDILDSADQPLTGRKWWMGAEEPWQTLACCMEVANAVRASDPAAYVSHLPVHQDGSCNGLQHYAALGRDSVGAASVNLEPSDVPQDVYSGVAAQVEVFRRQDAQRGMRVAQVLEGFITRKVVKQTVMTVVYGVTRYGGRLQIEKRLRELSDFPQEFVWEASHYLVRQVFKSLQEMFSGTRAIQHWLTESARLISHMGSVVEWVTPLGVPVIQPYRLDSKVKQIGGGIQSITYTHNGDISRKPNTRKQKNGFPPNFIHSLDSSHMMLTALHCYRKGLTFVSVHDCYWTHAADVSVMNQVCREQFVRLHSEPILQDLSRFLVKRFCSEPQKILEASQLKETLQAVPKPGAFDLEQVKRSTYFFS

The experiment addresses POLRMT (Homo sapiens (Human), UniProt O00411). In words: homogeneous TR-FRET assay of POLRMT inhibition (mitochondrial transcription, 407 bp RNA product). The class given is biochemical. The settings on record: 7.5 nM POLRMT, 15 nM TFB2M, 30 nM TFAM, 0.5 nM DNA template, 500 μM NTPs, 37° C., 60 minutes, * = aggregation of data sets, read-out: IC50 values for isoquinolinone compounds. The protocol: The inhibitory activity of the compounds of the present invention against POLRMT were determined by assays based on Bergbrede, T., et al., “An adaptable high-throughput technology enabling the identification of specific transcription modulators,” SLAC Discov., 22, 378-386 (2017).
The ability of some compounds of the present invention to inhibit POLRMT were determined in a homogeneous TR-FRET Assay using high-throughput screening in a 384-well plate format. This method is used to monitor the activity of mitochondrial transcription through measurement of its product, a 407 bp long RNA transcript. Detection of the product is facilitated by hybridization of two DNA-oligonucleotide probes to specific and adjacent sequences within the RNA product sequence. Upon annealing of the probes, two fluorophores are coupled directly to an acceptor nucleotide probe (ATTO647, 5′), or introduced via a coupled streptavidin with a biotinylated donor nucleotide probe (Europium cryptate) that is brought into sufficient proximity to serve as a fluorescence-donor-acceptor pair. Thus, a FRET signal at 665 nm is generated upon excitation at 340 nm.
Proteins used as transcription factors (POLRMT: NP_005026.3, TFAM: NP_003192.1, TFB2M: NP_071761.1) are diluted from their stocks to working concentrations of 1 μM, 20 μM and 4 μM respectively, in a dilution buffer containing 20 mM Tris-HCl (pH 8.0), 200 mM NaCl, 10% (v/v) glycerol, 1 mM Dithiothreitol (DTT), 0.5 mM EDTA.
DNA template is a pUC18 plasmid with the mitochondrial light strand promotor sequence (1-477) cloned between HindIII and BamHI sites. The DNA template is restriction linearized proximal to the promotor 3′-end (pUC-LSP).
The reaction mixture (10 uL) containing 7.5 nM POLRMT, 15 nM of TFB2M, 30 nM of TFAM, 0.5 nM of DNA template and 500 μM nucleotide triphosphate mix (NTPs) in a reaction buffer (containing 10 mM Tris-HCl (pH 7.5), 10 mM MgCl2, 40 mM NaCl, 10 mM DTT, 0.005% (w/v) Tween-20, 160 units/ml Rnase inhibitor and 0.1 mg/mL BSA) are dispensed to compounds in microplates, using a Thermo Multidrop® dispenser, and incubated at 37° C. in a VWR INCU-Line incubator for 60 minutes after mixing. No nucleotide triphosphate mix is added to negative control samples. Microplates with compounds to be tested in the assay are prepared from 10 mM compound stocks in 100% DMSO, equal amounts of DMSO without any compound are added to positive control and negative control samples.
During the incubation, a mix of the detection reagents is prepared in a buffer such that the enzymatic reaction is terminated due to chelating of Mg-ions and increased ionic strength, containing 50 mM Tris-HCl (pH 7.5), 700 mM NaCl, 20 mM EDTA, and 0.01% (w/v) Tween-20. Europium-streptavidin is pre-incubated with a 200-fold molar excess of a random sequence oligonucleotide to block unspecific binding of oligo, for two hours at ambient temperature in the dark. Afterwards, the blocked Europium-streptavidin is kept on ice until use.
At the end of the enzymatic reaction time, 5 μL detection oligo mix in the detection buffer is added, and assay plates are mixed and kept at ambient temperature for one hour, protected from light. The concentration of the Acceptor nucleotide oligo (e.g., ATTO647N-5′-[…]-3′ (SEQ ID NO: 1)) and Donor nucleotide oligo (e.g., bio-5′-AACACATCTCT(-bio)GCCAAACCCCA-bio-3′ (SEQ ID NO: 2)) in each assay well is 1 nM, and 3 nM, respectively.
After incubation with oligo mix, 5 μL of pre-blocked Europium-streptavidin reagent is dispensed to each assay well, assay plates are again mixed and kept at ambient temperature for one hour, protected from light.
The generated signal is measured with BMG Pherastar microtiter plate reader with a TRF light unit, using excitation at 340 nm, an integration time of 200 μs, and a delay time of 100 μs, before detection at 620 nm and 665 nm. The ratio of donor- and acceptor-fluorescence is used as a measure of the generated transcript product (i.e. enzymatic activity).
(In TR-FRET formats the signal depends on donor and acceptor labels being close together.)
With `Cc1ccccc1-c1c[nH]c(=O)c2cc(O[C@H](C)C(=O)N3CC(C(=O)O)CC(F)(F)C3)ccc12` (single isomer, unassigned) [Example 1], the IC50 was found to be 60 nM. For `Cc1ccccc1-c1c[nH]c(=O)c2cc(O[C@H](C)C(=O)N3CC(C(=O)O)CC(F)(F)C3)ccc12` (single isomer, unassigned) [Example 2] the value was 50 nM; for `C[C@@H](C(=O)N1CCC[C@H](C(=O)O)C1)N(C)c1ccc2c(-c3ccc(F)cc3Cl)c[nH]c(=O)c2c1` (single isomer, unassigned) [Example 4], 100 nM; for `C[C@@H](C(=O)N1CCC[C@H](C(=O)O)C1)N(C)c1ccc2c(-c3ccc(F)cc3Cl)c[nH]c(=O)c2c1` (single isomer, unassigned) [Example 5], 8000 nM.

With `Cc1ccccc1-c1c[nH]c(=O)c2cc(N(C)[C@@H](C)C(=O)N3CCC[C@H](C(=O)O)C3)ccc12` (single isomer, unassigned) [Example 7], the IC50 worked out at 200 nM. As for `Cc1ccccc1-c1c[nH]c(=O)c2cc(N(C)[C@@H](C)C(=O)N3CCC[C@H](C(=O)O)C3)ccc12` (single isomer, unassigned) [Example 8], the figure is 93000 nM; as for `C[C@@H](Oc1ccc2c(-c3ccc(F)cc3Cl)c[nH]c(=O)c2c1)C(=O)N1CC(C(N)=O)CC(F)(F)C1` (single isomer, unassigned) [Example 9], 200 nM; as for `Cc1ccccc1-c1c[nH]c(=O)c2cc(O[C@H](C)C(=O)N3CCCC(CC(=O)O)C3)ccc12` (single isomer, unassigned) [Example 12], 60 nM. As for `Cc1ccccc1-c1c[nH]c(=O)c2cc(O[C@H](C)C(=O)N3CCCC(CC(=O)O)C3)ccc12` (single isomer, unassigned) [Example 13], the figure is 70 nM; as for `C[C@@H](Oc1ccc2c(-c3ccc(F)cc3Cl)c[nH]c(=O)c2c1)C(=O)N1CCCC(C2(C(=O)O)CC2)C1` (single isomer, unassigned) [Example 36], 80 nM. For `C[C@@H](Oc1ccc2c(-c3ccc(F)cc3Cl)c[nH]c(=O)c2c1)C(=O)N1CCCC(C2(C(=O)O)CC2)C1` (single isomer, unassigned) [Example 37], the IC50 worked out at 50 nM. For `Cc1ccccc1-c1c[nH]c(=O)c2cc(O[C@H](C)C(=O)N3CCCC(C4(C(N)=O)CC4)C3)ccc12` (single isomer, unassigned) [Example 40] the value was 20 nM; for `Cc1ccccc1-c1c[nH]c(=O)c2cc(O[C@H](C)C(=O)N3CCCC(C4(C(N)=O)CC4)C3)ccc12` (single isomer, unassigned) [Example 41], 40 nM. For `Cc1ccccc1-c1c[nH]c(=O)c2cc(O[C@H](C)C(=O)N3CCCC(C(C)(C)C(=O)O)C3)ccc12` (single isomer, unassigned) [Example 43] the value was 20 nM; for `Cc1ccccc1-c1c[nH]c(=O)c2cc(O[C@H](C)C(=O)N3CCCC(C(C)(C)C(=O)O)C3)ccc12` (single isomer, unassigned) [Example 44], 60 nM. With `Cc1ccccc1-c1c[nH]c(=O)c2cc(O[C@H](C)C(=O)N3CCCC(C(C)(C)C(N)=O)C3)ccc12` (single isomer, unassigned) [Example 45], the IC50 was 30 nM. As for `Cc1ccccc1-c1c[nH]c(=O)c2cc(O[C@H](C)C(=O)N3CCCC(C(C)(C)C(N)=O)C3)ccc12` (single isomer, unassigned) [Example 46], the figure is 40 nM; as for `C[C@@H](Oc1ccc2c(-c3ccc(F)cc3Cl)c[nH]c(=O)c2c1)C(=O)N1CCCC(C(C)(C)C(=O)O)C1` (single isomer, unassigned) [Example 50], 60 nM. For `C[C@@H](Oc1ccc2c(-c3ccc(F)cc3Cl)c[nH]c(=O)c2c1)C(=O)N1CCCC(C(C)(C)C(=O)O)C1` (single isomer, unassigned) [Example 51] the value was 300 nM. As for `CCC1(C(=O)O)CCCN(C(=O)[C@@H](C)Oc2ccc3c(-c4ccccc4C)c[nH]c(=O)c3c2)C1` (single isomer, unassigned) [Example 52], the figure is 20 nM; as for `CCC1(C(=O)O)CCCN(C(=O)[C@@H](C)Oc2ccc3c(-c4ccccc4C)c[nH]c(=O)c3c2)C1` (single isomer, unassigned) [Example 53], 40 nM. With `CCCC1(C(=O)O)CCCN(C(=O)[C@@H](C)Oc2ccc3c(-c4ccccc4C)c[nH]c(=O)c3c2)C1` (single isomer, unassigned) [Example 66], the IC50 came to 100 nM. With `CCCC1(C(=O)O)CCCN(C(=O)[C@@H](C)Oc2ccc3c(-c4ccccc4C)c[nH]c(=O)c3c2)C1` (single isomer, unassigned) [Example 67], the half-inhibitory concentration (IC50) was 40 nM. In the case of `Cc1ccccc1-c1c[nH]c(=O)c2cc(O[C@H](C)C(=O)N3CCCCC(N(C)C)C3)ccc12` (single isomer, unassigned) [Example 75], the IC50 worked out at 3000 nM.

`Cc1ccccc1-c1c[nH]c(=O)c2cc(O[C@H](C)C(=O)N3CCCCC(N(C)C)C3)ccc12` (single isomer, unassigned) [Example 76]: the IC50 was found to be 2000 nM. As for `CCOC(=O)CN(C)c1ccc2c(-c3ccccc3C)c[nH]c(=O)c2c1` [Example 3, ethyl N-methyl-N-(1-oxo-4-(o-tolyl)-1,2-dihydroisoquinolin-7-yl)glycinate], the figure is 300 nM. For the compound `CC(=O)N1CC2CC1CN2C(=O)[C@@H](C)Oc1ccc2c(-c3ccc(F)cc3Cl)c[nH]c(=O)c2c1` (stereo partly drawn) [Example 6, 7-(((2R)-1-(5-acetyl-2,5-diazabicyclo[2.2.1]heptan-2-yl)-1-oxopropan-2-yl)oxy)-4-(2-chloro-4-fluorophenyl)isoquinolin-1(2H)-one], the IC50 was 1000 nM. Consider `COc1ccc2c(-c3ccccc3C(C)O)c[nH]c(=O)c2c1` (centres unmarked) [Example 11, 4-(2-(1-hydroxyethyl)phenyl)-7-methoxyisoquinolin-1(2H)-one], for which the IC50 was determined as 62000 nM.

As to `C[C@@H](Oc1ccc2c(-c3ccc(F)cc3Cl)c[nH]c(=O)c2c1)C(=O)N1CCC(C)(C(=O)O)CC1` [Example 14, (R)-1-(2-((4-(2-chloro-4-fluorophenyl)-1-oxo-1,2-dihydroisoquinolin-7-yl)oxy)propanoyl)-4-methylpiperidine-4-carboxylic acid], the IC50 stood at 100 nM. `Cc1ccccc1-c1c[nH]c(=O)c2cc(O[C@H](C)C(=O)N3CCC(C)(C(=O)O)CC3)ccc12` [Example 15, (R)-4-methyl-1-(2-((1-oxo-4-(o-tolyl)-1,2-dihydroisoquinolin-7-yl)oxy)propanoyl)piperidine-4-carboxylic acid]: the IC50 is 60 nM. As for `Cc1ccccc1-c1c[nH]c(=O)c2cc(O[C@H](C)C(=O)N3CCN(C(N)=O)CC3)ccc12` [Example 16, (R)-4-(2-((1-oxo-4-(o-tolyl)-1,2-dihydroisoquinolin-7-yl)oxy)propanoyl)piperazine-1-carboxamide], the figure is 100 nM; as for `CC(=O)N(C)CCNC(=O)[C@@H](C)Oc1ccc2c(-c3ccccc3C)c[nH]c(=O)c2c1` [Example 17, (R)-N-(2-(N-methylacetamido)ethyl)-2-((1-oxo-4-(o-tolyl)-1,2-dihydroisoquinolin-7-yl)oxy)propanamide], 2000 nM.

For orientation: IC50 means the concentration at which inhibition is half-maximal.
